One data set concerns A375P cells. The data set can be described thus: Inhibition activity against proliferation of A375P melanoma cells (MTT assay). The following applies: Homo sapiens, read-out: Inhibition activity against proliferation of A375P cells (GI50, μM). Background: Formazan colour is commonly taken as a measure of viable cells.
The next data set relates to SK-MEL28 cells. The data set can be described thus: Inhibition activity against proliferation of SK-MEL28 melanoma cells (MTT assay). As to conditions: Homo sapiens, SK-MEL-28, read-out: Inhibition activity against proliferation of SK-MEL28 cells (GI50, μM).
In another data set the target is T1, B-Raf (V600E) (Homo sapiens, UniProt P15056, V600E).
T1 construct: purchased Cell Signaling #7663
T1 sequence (P15056 whole entry V600E): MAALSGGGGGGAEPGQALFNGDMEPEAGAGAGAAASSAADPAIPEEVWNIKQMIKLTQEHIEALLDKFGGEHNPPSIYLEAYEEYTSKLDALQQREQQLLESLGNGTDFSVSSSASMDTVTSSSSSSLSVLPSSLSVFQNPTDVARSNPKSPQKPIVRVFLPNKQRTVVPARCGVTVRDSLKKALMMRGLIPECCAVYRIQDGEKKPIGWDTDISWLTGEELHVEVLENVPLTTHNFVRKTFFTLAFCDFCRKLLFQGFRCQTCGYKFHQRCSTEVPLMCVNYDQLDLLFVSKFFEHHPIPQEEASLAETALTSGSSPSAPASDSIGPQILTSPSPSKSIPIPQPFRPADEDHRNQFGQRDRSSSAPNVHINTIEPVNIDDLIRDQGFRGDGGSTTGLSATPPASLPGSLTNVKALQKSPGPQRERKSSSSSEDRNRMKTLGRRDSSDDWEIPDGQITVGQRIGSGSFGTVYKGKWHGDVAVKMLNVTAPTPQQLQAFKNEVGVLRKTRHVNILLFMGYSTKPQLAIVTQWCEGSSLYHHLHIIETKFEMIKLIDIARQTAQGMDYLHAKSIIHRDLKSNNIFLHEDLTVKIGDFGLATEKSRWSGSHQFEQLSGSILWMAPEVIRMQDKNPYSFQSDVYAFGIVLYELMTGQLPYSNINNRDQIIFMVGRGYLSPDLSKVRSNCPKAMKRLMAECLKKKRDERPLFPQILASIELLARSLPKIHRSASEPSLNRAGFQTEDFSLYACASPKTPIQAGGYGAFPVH
Briefly: Measurement of B-Raf-V600E kinase activity (MEK1 (K97R) phosphorylation, [γ-32P] ATP). It counts as biochemical. The following applies: read-out: B-Raf kinase inhibition activity (% inhibition at 1 μM). How it is done:
(1) Activation of MEK1 (K97R) by B-Raf
Base reaction buffer (20 mM Hepes (pH 7.5), 10 mM MgCl2, 1 mM EGTA, 0.02% Brij35, 0.02 mg/mL BSA, 0.1 mM Na3VO, 2 mM DTT, 1% DMSO) was prepared. B-Raf (V600E) (Cell Signaling #7663) diluted to 30 nM was added at a final concentration of 10 nM, and MEK1 (K97R) (Upstate #14-737) diluted to 3 μM was added at a final concentration of 1 μM. The test compound was prepared at a concentration of 10 mM in dimethylsulfoxide (DMSO) and diluted to various concentrations. The final volume was adjusted to 20 μL and, after completely mixing, the mixture was allowed to react at room temperature for 30 minutes.
(2) Phosphorylation of MEK1 (K97R)
[γ-32P] ATP (100 μCi/container) diluted to 1/10 was added in 10 μL aliquots. After completely mixing, the mixture was allowed to react at room temperature for 2 hours. After placing P81 paper in a scintillation vial, spotting was performed using 30 μL of the reaction mixture. After washing 3 times with 0.75% phosphoric acid for 10 minutes and washing once with acetone for 10 minutes, 5 mL of scintillation cocktail was added to the scintillation vial holding the washed P81 paper. Signals were recorded using a scintillation counter.

The test system of the next data set is A375 melanoma cells. As to conditions: read-out: proliferation of A375 melanoma cells IC50; cited from earlier work.
For data set [1] the following is noted: cited from earlier work.

Regarding `COc1ccccc1NC(=O)Nc1ccc(C)c(-c2ccc3ccn(-c4cc(N)ncn4)c3c2)c1` [Example 21, 1-(3-(1-(6-aminopyrimidin-4-yl)-1H-indol-6-yl)-4-methylphenyl)-3-(2-methoxyphenyl)urea], the GI50 with A375P cells and with SK-MEL28 cells was < 10 µM each time. The inhibition (usually how much of the control response was suppressed) at 1 µM on B-Raf (V600E) was > 50%.

In the case of `CNc1cc(-n2ccc3ccc(-c4cccc(NC(=O)Nc5ccccc5OC)c4)cc32)ncn1` [Example 22, 1-(2-methoxyphenyl)-3-(3-(1-(6-(methylamino)pyrimidin-4-yl)-1H-indol-6-yl)phenyl)urea], the GI50 in the data set with A375P cells and with SK-MEL28 cells was < 10 µM in each case. Further, the inhibition at 1 µM on B-Raf (V600E) is > 50%.

For `COc1ccccc1NC(=O)Nc1cccc(-c2ccc3ccn(-c4cc(NC(=O)C5CC5)ncn4)c3c2)c1` [Example 26, N-(6-(6-(3-(3-(2-methoxyphenyl)ureido)phenyl)-1H-indol-1-yl)pyrimidin-4-yl)cyclopropanecarboxamide], the GI50 in the data set with A375P cells and with SK-MEL28 cells was < 10 µM throughout. Further, the inhibition at 1 µM on B-Raf (V600E) is > 50%.

Consider `CCCS(=O)(=O)Nc1ccc(F)c(C(=O)c2c[nH]c3ncc(Cl)cc23)c1F` [PLX4720], for which the IC50 in the data set on A375 melanoma cells was 0.5 µM.

On to `CNC(=O)c1cc(Oc2ccc(NC(=O)Nc3ccc(Cl)c(C(F)(F)F)c3)cc2)ccn1` [sorafenib, Sorafenib], for which, in data set [1] (600 mg (twice a day)), the skin toxicity entry is given as “grade 3 skin toxicity”. For the same compound, the “maximum allowed administration dose” value in data set [1] (clinical trial phase II, twice a day) was 400 mg.

These data come from patent US8765749B2, “1,6-disubstituted indole compounds as protein kinase inhibitors” (Korea Institute of Science and Technology, priority 2009, dated 2014).
